Test results taken from patent publication US11492347B2 (ENYO PHARMA, priority 2018, dated 2022).

Columns and labels:
[1] = test system: H1N1 (influenza A/New Caledonia/20/99); assay: microbe, parasite or virus in culture; format: cell-based; details: H1N1, A549, 48 h
[2] = target: T1, CISD2 Gene Product (NAF-1) (Homo sapiens, UniProt Q8N5K1); assay: Stability of Fe-S cluster binding of purified NEET protein (absorbance 458 nm); format: biochemical; details: for Time (in minutes) to achieve 50% loss of bound cluster (Absorbance 458 nm) / Residual cluster bound at end of experiment (Percentage Absorbance 458 nm at time zero): NAF-1 20 μM, compound 60 μM; for Time (in minutes) to achieve 50% loss of bound cluster (Absorbance 458 nm): pH 6, 37° C., run time 500 minutes, vehicle control 310 or 210; for Residual cluster bound at end of experiment (Percentage Absorbance 458 nm at time zero): pH 6, at 500 minutes, vehicle control 3%; for Stabiliser or destabiliser of Fe-S cluster binding by CISD2 Gene Product (NAF-1): time to 50% cluster loss changed by more than 25% compared to the Control sample, at the concentrations tested
T1 sequence (Q8N5K1 57-135 limits assumed): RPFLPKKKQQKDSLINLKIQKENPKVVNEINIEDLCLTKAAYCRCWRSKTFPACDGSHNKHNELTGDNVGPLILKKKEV
Protocol: (§1) The modulator effect on the NEET proteins encoded by human CISD1, CISD2, and CISD3 genes by the compounds of the invention has been tested and is reported below. Particularly, the biochemical function of the NEET proteins is measured by the stability of Fe—S cluster binding of the purified NEET proteins.
(§2) The Fe—S cluster binding capacity of NEET proteins is known to be coordinated by four amino-acids in a stretch of 16 (three Cysteine and one Histidine). As the lability of the Fe—S cluster of NEET proteins is sensitive to the environment, cluster stability measurements are one of the measures of interactions of NEET proteins with small molecules and compounds. NEET protein/2Fe-2S cluster stability can be assessed by monitoring the decay in absorbance of its characteristic 458-nm peak (characteristic of the oxidized 2Fe-2S cluster) over time. Each NEET protein (mitoNEET, NAF-1 and Miner 2) was tested for its Fe—S binding in the absence or presence of a compound according to the invention (see table 4 below). The rate of cluster release (time in minutes to achieve 50% loss of bound Fe—S cluster) was compared for each NEET protein in the presence of one of the compounds of the invention (in a 1:3 protein:compound molar ratio) relative to each protein alone.
(§3) At pH 6, all the three NEET proteins (mitoNEET, NAF-1 and Miner 2) have a characteristic rate of loss of the bound Fe—S cluster that can be measured by the decrease of absorbance at wavelength 458 nm over time, using a spectrophotometer. Thus, Bis-Tris buffer (100 mM Bis-Tris pH6, 100 mM Nacl) was used at pH 6 to dilute either DMSO (Blank sample: Bis-Tris Buffer pH 6, 66 μM DMSO), DMSO and one of the three NEET proteins (Control sample: Bis-Tris Buffer pH 6, 66 μM DMSO, 20 μM purified NEET protein) or DMSO, one of the three NEET proteins and a compound of the invention (Test sample: Bis-Tris Buffer pH 6, 66 μM DMSO, 20 μM purified NEET protein, 60 μM compound of the invention).
(§4) A reaction mix containing DMSO diluted in the Bis-Tris Buffer with or without a compound of the invention was prepared. The purified NEET protein was the last component added to the reaction mix which was then aliquoted into 4 replicates in 96 wells plates. The absorbance at wavelength 458 nm was taken at 5 minutes intervals at 37° C. with a spectrofluorimeter. The assay run time for CISD2 gene product (NAF-1) was 500 minutes and 180 minutes for both the CISD1gene product (mitoNEET) and the CISD3 gene product (Miner2).
(§5) In addition to time monitoring, residual bound Fe—S cluster to NEET protein was measured at the final point of the spectrometry assay for each Test sample and compared to the Control sample data (in parenthesis table 4). This residual binding is measured by the differential percentage between the absorbance 458 nm at time zero and the absorbance 458 nm at the end of the experiment (i.e. respectively 500 or 180 minutes as described here above), showing the percentage of NEET protein still able to bind a Fe—S cluster.
(§6) Analysis of the absorbance enables the time for which 50% loss of bound Fe—S cluster is reached (i.e. a 50% absorbance decrease at 458 nm) for each Test sample and each Control sample (in parenthesis table 4) to be determined. The data are then compared to determine whether the compound of the invention stabilizes or destabilizes the NEET protein/Fe—S cluster binding.

[3] = target: T2, CISD1 Gene Product (mitoNEET) (Homo sapiens, UniProt Q9NZ45); assay: as above; format: biochemical; details: for Time (in minutes) to achieve 50% loss of bound cluster (Absorbance 458 nm) / Residual cluster bound at end of experiment (Percentage Absorbance 458 nm at time zero): mitoNEET 20 μM, compound 60 μM; for Time (in minutes) to achieve 50% loss of bound cluster (Absorbance 458 nm): pH 6, 37° C., run time 180 minutes, vehicle control 80; for Residual cluster bound at end of experiment (Percentage Absorbance 458 nm at time zero): pH 6, at 180 minutes, vehicle control 16%; for Stabiliser or destabiliser of Fe-S cluster binding by CISD1 Gene Product (mitoNEET): time to 50% cluster loss changed by more than 25% compared to the Control sample, at the concentrations tested
T2 sequence (Q9NZ45 33-108 limits assumed): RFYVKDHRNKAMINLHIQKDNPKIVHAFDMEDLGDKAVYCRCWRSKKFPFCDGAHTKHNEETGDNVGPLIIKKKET
Protocol: as §1, §2, §3, §4, §5, §6

[4] = target: T3, CISD3 Gene Product (Miner2) (Homo sapiens, UniProt P0C7P0); assay: as above; format: biochemical; details: for Residual cluster bound at end of experiment (Percentage Absorbance 458 nm at time zero): CISD3 gene product 20 μM, pH 6, at 180 minutes, vehicle control 11%; for Residual cluster bound at end of experiment (Percentage Absorbance 458 nm at time zero) / Time (in minutes) to achieve 50% loss of bound cluster (Absorbance 458 nm): compound 60 μM; for Time (in minutes) to achieve 50% loss of bound cluster (Absorbance 458 nm): Miner2 20 μM, pH 6, 37° C., run time 180 minutes, vehicle control 60; for Stabiliser or destabiliser of Fe-S cluster binding by CISD3 Gene Product (Miner2): time to 50% cluster loss changed by more than 25% compared to the Control sample, at the concentrations tested
T3 sequence (P0C7P0 15-127): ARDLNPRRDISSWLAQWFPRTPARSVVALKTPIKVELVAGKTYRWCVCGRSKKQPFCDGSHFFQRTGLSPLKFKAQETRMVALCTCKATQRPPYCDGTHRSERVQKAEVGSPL
Protocol: as §1, §2, §3, §4, §5, §6

NFκB = NFκB reporter assay, TNFα stimulation of A549 NFκB-NanoLuciferase reporter cells; format: cell-based; details: Homo sapiens, 4 ng/ml TNFα, NanoGlo luciferase assay 6 hours later
Description: Compounds of the present invention have been tested for their capacity to inhibit NFκB.
The NFκB reporter construct was made by cloning 5 NFκB responsive elements upstream of a NanoLuciferase reporter gene flanked by AAVS1 genomic sequences.
NFκB Responsive element fused with NanoLuciferase and SV40 late Poly(A) signal was amplified from pNL3.2-NFκB-Nluc (Promega) using NFKB-NLUC-F and NFKB-NLUC-R primers and inserted by Infusion (TaKaRa) in AAVS1 SA-2A-puro-pA donor plasmid (Hockemeyer et al, Nat Biotechnol. 2009, 27, 851-7) digested by Sal1. pCRISPR AAVS1-T2 expressing a guide RNA (gRNA) to target human AAVS1 (T2 target sequence) was constructed by inserting AAVS1-T2A hybridized primers in pLentiCRISPR v2-blast (Sanjana et al, Nat Methods. 2014, 11, 783-4) digested by Bsmbl.
A549 cells were transfected by the plasmids and puromycine selected for 5 days (1 μg mL-1). Then clones were obtained by limiting dilution and selected to maximize TNF dependent NFκB-NanoLuciferase induction.
The reporter cells were seeded on a 96-well plate for overnight with DMEM including 10% FBS. Test compounds were added at varying concentrations. The cells then were treated with 4 ng/ml TNFα (Peprotech, ref E251) in DMEM+10% FBS. NanoGlo luciferase assay (Promega) was carried out 6 hours later. Luminescence was measured using a Spark 20M spectrofluorimeter (Tecan). Values were normalized to the luminescence measured in untreated cells.

| Compound | IC50 [1] | Time (in minutes) to achieve 50% loss of bound cluster (Absorbance 458 nm) [2] | Residual cluster bound at end of experiment (Percentage Absorbance 458 nm at time zero) [2] | Stabiliser or destabiliser of Fe-S cluster binding by CISD2 Gene Product (NAF-1) [2] | Time (in minutes) to achieve 50% loss of bound cluster (Absorbance 458 nm) [3] | Residual cluster bound at end of experiment (Percentage Absorbance 458 nm at time zero) [3] | Residual cluster bound at end of experiment (Percentage Absorbance 458 nm at time zero) [4] | Time (in minutes) to achieve 50% loss of bound cluster (Absorbance 458 nm) [4] | Stabiliser or destabiliser of Fe-S cluster binding by CISD3 Gene Product (Miner2) [4] | EC50 (NFκB) | Stabiliser or destabiliser of Fe-S cluster binding by CISD1 Gene Product (mitoNEET) [3] |
| --- | --- | --- | --- | --- | --- | --- | --- | --- | --- | --- | --- |
| COC1CN(c2ccc(C(=O)Nc3sc4c(c3C(=O)O)CCC(C)(C)C4)cc2)C1 [Compound #147, 2-[[4-(3-Methoxyazetidin-1-yl)benzoyl]amino]-6,6-dimethyl-5,7-dihydro-4H-benzothiophene-3-carboxylic acid] | 11.1 nM | 85 (310) minutes | 5% (3%) | destabilisers | 75 (80) minutes | 11% (16%) | 10% (11%) | 60 (60) minutes |  |  |  |
| COc1ccc(C(=O)Nc2sc3c(c2C(=O)O)CCC(C)(C)C3)cc1 [Compound #20, 2-[(4-Methoxybenzoyl)amino]-6,6-dimethyl-5,7-dihydro-4H-benzothiophene-3-carboxylic acid] | 74 nM | 300 (310) minutes | 4% (3%) |  | 65 (80) minutes | 0% (16%) | 9% (11%) | 35 (60) minutes | Destabilisers |  |  |
| CC1(C)CCc2c(sc(NC(=O)c3ccccc3)c2C(=O)O)C1 [Compound #15, 2-Benzamido-6,6-dimethyl-5,7-dihydro-4H-benzothiophene-3-carboxylic acid] | 60 nM |  |  |  |  |  |  |  |  | 150 nM |  |
| CC1(C)Cc2c(sc(NC(=O)c3ccccc3)c2C(=O)O)C(C)(C)C1 [Compound #33, 2-Benzamido-5,5,7,7-tetramethyl-4,6-dihydrobenzothiophene-3-carboxylic acid] | 34.6 nM |  |  |  |  |  |  |  |  | 400 nM |  |
| CC1(C)Cc2c(sc(NC(=O)c3ccc(Br)cc3)c2C(=O)O)C(C)(C)C1 [Compound #138, 2-[(4-Bromobenzoyl)amino]-5,5,7,7-tetramethyl-4,6-dihydrobenzothiophene-3-carboxylic acid] | 8.8 nM | 435 (210) minutes | 30% (3%) | Stabilisers |  | 53% (16%) | 66% (11%) |  | Stabilisers |  | stabilisers |
| CN(c1ccc(C(=O)Nc2sc3c(c2C(=O)O)CC(C)(C)CC3(C)C)cc1)C1CCOCC1 [Compound #135, 5,5,7,7-Tetramethyl-2-[[4-[methyl(tetrahydropyran-4-yl)amino]benzoyl]amino]-4,6-dihydrobenzothiophene-3-carboxylic acid] | 6.1 nM | 160 (310) minutes | 16% (3%) | destabilisers | 100 (80) minutes | 24% (16%) | 20% (11%) | 80 min | Stabilisers |  | stabilisers |
| CC1(C)CCc2sc(NC(=O)c3ccc(NCC4CCOCC4)cc3)c(C(=O)O)c2C1 [#164, 5,5-Dimethyl-2-[[4-(tetrahydropyran-4-ylmethylamino)benzoyl]amino]-6,7-dihydro-4H-benzothiophene-3-carboxylic acid] | 16 nM |  |  |  |  |  |  |  |  | 90 nM |  |
| COc1ccc(C(=O)Nc2sc3c(c2C(=O)O)CCC(C)(C)C3)c(F)c1 [Compound #16, 2-[(2-Fluoro-4-methoxybenzoyl)amino]-6,6-dimethyl-5,7-dihydro-4H-benzothiophene-3-carboxylic acid] | 43.8 nM |  |  |  |  |  |  |  |  | 150 nM |  |
| CC1CC(C)(C)Cc2sc(NC(=O)c3ccc(NC4CCOCC4)cc3)c(C(=O)O)c21 (centres unmarked) [Compound #136, 4,6,6-Trimethyl-2-[[4-(tetrahydropyran-4-ylamino)benzoyl]amino]-5,7-dihydro-4H-benzothiophene-3-carboxylic acid] | 12 nM | 325 (310) minutes | 5% (3%) |  | 75 (80) minutes | 2% (16%) | 10% (11%) | 45 (60) minutes | Destabilisers |  |  |
